Values joined by “and” are separate entries in the source; they are usually repeats but may differ in a detail not shown here. Equal values may be shown once. Read-outs that look alike come from different tables or passages of the source.
Assays:
[1] = system: atherosclerosis in LDLR KO mice; experiment: Efficacy of AFOD RAAS 1 (APOA1) on atherosclerosis, LDLR KO mice; type: in vivo
[2] = system: fatty streak lesions in rabbits on high fat diet; type: in vivo, rabbit; parameters: HDL-C, Wk 0 / HDL-C, Wk 18 or wk 21 / Fatty streak lesions area, Compare to wk 10 of control group / Fatty streak lesions area, Compare to wk 18 of control group: unit not given here; conditions: for lipid con. at dissected aorta: triglyceride content; for increase of area of fatty streak lesion: control group 187%
Protocol: The rabbits were fasted for 12 hrs before the beginning of the experiments. Blood parameters were then tested as the normal level of plasma indicators. A total of 52 rabbits were purchased at different time, four of them were used as normal control and fed with normal diet the whole time during the experiments. […] Plasma concentrations of total cholesterol (TC), […] (TG), low density lipoprotein-cholesterol (LDL-C), very low density lipoprotein-cholesterol (VLDL-C), high density lipoprotein-cholesterol (HDL-C) were quantified by enzymatic assays. TC/HDL-C or ([…] ratios were then determined. Animals were sacrificed under deep anesthesia with sodium pentobarbital 25 mg/kg IV. The entire aorta from the aortic valve to the iliac bifurcation was removed from each rabbit and opened longitudinally. […] Atheromatous lesions were measured without staining Atheromatous lesions were manually traced in the photographs, and the percent area of the atheromatous lesions was calculated. Sample of aorta from animals were homogenated. And the content of lipid was determined.

[3] = system: atherosclerosis in APOE KO mice; type: in vivo
[4] = APOA1 group 1, Wk 0 (start of high fat diet)
[5] = APOA1 group 1, Wk 10 (before APOA1 administration)
[6] = APOA1 group 1, Wk 18 (end of APOA1 administration)
[7] = APOA1 group 2, Wk 0 (start of high fat diet)
[8] = APOA1 group 2, Wk 10 (before APOA1 administration)
[9] = APOA1 group 2, Wk 21 (end of APOA1 administration)

## human Apolipoprotein AI [APOAI]
[1]
  reduction and prevention of atherosclerosis: effective in the reduction and prevention of atherosclerosis
[2]; [4]
  TC/HDL-C: 1.938
  plasma HDL-C: 0.748
  plasma LDL-C: 0.282
  plasma TCH: 1.152
  plasma TG: 0.967
  plasma VLDL-C: 0.870
[2]; [5]
  TC/HDL-C: 6.560
  plasma HDL-C: 8.261
  plasma LDL-C: 21.157
  plasma TCH: 36.153
  plasma TG: 5.191
  plasma VLDL-C: 14.996
[2]; [6]
  TC/HDL-C: 3.000
  plasma HDL-C: 1.46
  plasma LDL-C: 2.60
  plasma TCH: 3.69
  plasma TG: 1.17
  plasma VLDL-C: 1.09
[2]; [7]
  TC/HDL-C: 4.185
  plasma HDL-C: 0.432
  plasma LDL-C: 0.472
  plasma TCH: 1.430
  plasma TG: 0.93
  plasma VLDL-C: 0.958
[2]; [8]
  TC/HDL-C: 3.667
  plasma HDL-C: 10.168
  plasma LDL-C: 19.24
  plasma TCH: 34.683
  plasma TG: 4.507
  plasma VLDL-C: 15.443
[2]; [9]
  TC/HDL-C: 3.844
  plasma HDL-C: 1.17
  plasma LDL-C: 2.19
  plasma TCH: 3.322
  plasma TG: 1.94
  plasma VLDL-C: 1.14
[2]; APOAI Group 1
  HDL-C, Wk 0: 0.748
[2]; APOAI Group 1 (n = 7)
  lipid con. at dissected aorta: 0.025 ± 0.0095 µmol/mg
[2]; APOAI Group 1, Wk 18
  Fatty streak lesions area: 43.84%
  Fatty streak lesions area, Compare to wk 10 of control group: 19.03
  Fatty streak lesions area, Compare to wk 18 of control group: −27.36
  Fatty streak lesions area, Decrease % (compare to wk 18 of control group): 38.43%
  Fatty streak lesions area, Increase % (compare to wk 10 of control group): 77%
[2]; APOAI Group 1, wk 0 to wk 18
  HDL-C, Concentration increased: 0.716
  HDL-C, Fold increased: 1.436
[2]; APOAI Group 2
  HDL-C, Wk 0: 0.432
[2]; APOAI Group 2 (n = 4)
  lipid con. at dissected aorta: 0.0267 ± 0.0054 µmol/mg
[2]; APOAI Group 2, Wk 21
  Fatty streak lesions area: 50.51%
  Fatty streak lesions area, Compare to wk 10 of control group: 25.71
  Fatty streak lesions area, Compare to wk 18 of control group: −20.69
  Fatty streak lesions area, Decrease % (compare to wk 18 of control group): 29.05%
  Fatty streak lesions area, Increase % (compare to wk 10 of control group): 104%
[2]; APOAI Group 2, wk 0 to wk 21
  HDL-C, Concentration increased: 0.992
  HDL-C, Fold increased: 3.078
[2]; APOAI group 1 (wk 18)
  HDL-C, Wk 18 or wk 21: 1.464
  decrease of area of fatty streak lesion vs control group: 38% and 38.43%
[2]; APOAI group 1, P<0.05
  TC/HDL-C vs control group: significant decrease
  VLDL-C vs control group: significant decrease
[2]; APOAI group 1
  increase of area of fatty streak lesion: 77%
[2]; APOAI group 1 and 2
  rest of plasma lipid values vs control group: no significant change
[2]; APOAI group 2 (wk 21)
  HDL-C, Wk 18 or wk 21: 1.423
  decrease of area of fatty streak lesion vs control group: 29% and 29.05%
[2]; APOAI group 2
  increase of area of fatty streak lesion: 104%
[2]; P<0.05
  triglyceride content at dissected aorta vs control group: significantly lower
[2]; rabbit, in vivo
  liver index vs control group: no difference
[2]; vs animal without APOAI treatment
  plasma lipid concentrations (TC, TG, LDL-C, VLDL-C, HDL-C): decrease in all plasma lipid concentrations
[2]; vs control group
  gross examination of inner surface of aorta: no bumps on the inner surface of aorta
[2]; vs wk 10
  liver gross specimen: less fatty change in gross specimen
[3]; APOE KO mice
  reduction and prevention of atherosclerosis: effective in the reduction and prevention of atherosclerosis
[3]; after injection
  pre-B HDL, western blot: increase of pre-B HDL
[3]; mouse, in vivo
  antibody of APOA1 raised in mice: no antibody of APOA1 raised

Reference: patent publication US20170266266A1, “Functions of 55 Newfound Proteins and Their Medicinal Application in the Treatment and Prevention of Disease” (priority 2012, published 2017)
